Measurements: patent publication US10532066B2, “Surfactant lipids, compositions thereof, and uses thereof” (National Jewish Health, priority 2007, dated 2020)

Assays:
[1] = test system: primary rat alveolar macrophages; assay: LPS-induced NO production by rat alveolar macrophages; format: cell-based; conditions: LPS 10 ng/ml, 24 h, liposomes; LPS without phospholipid = 100%
Description: (§1) FIG. 1. Anionic phospholipids inhibit inflammatory mediator production induced by LPS. Liposomes composed of sphingomyelin (SM), phosphatidylethanolamine (PE) dipalmitoyl-phosphatidylcholine ((DPPC), phosphatidylserine (PS), palmitoyl-oleoyl-phosphatidylglycerol (POPG) and phosphatidylinositol (PI) were formed by bath-sonication for 30 min at room temperature. LPS (10 ng/ml) and different concentrations of phospholipids were added to monolayer cultures of differentiated U937 cells (A), or primary rat alveolar macrophages (B). At 6 h after stimulation, media were collected and secreted TNF-α levels were determined in U937 cultures. NO production was determined 24 h after stimulating rat alveolar macrophages. LPS stimulation in the absence of phospholipid was set as 100%. […] The average TNF-α production upon LPS stimulation was (8.0±0.54 ng/ml). The average NO production upon LPS stimulation was 12.17±0.27 μM.
(§2) FIG. 2. The inhibitory effect of phosphatidylglycerols on LPS-induced inflammatory mediator production is molecular species specific. PG liposomes were formed by bath-sonication for 30 min at room temperature. LPS (10 ng/ml) and different concentrations of PG were added to monolayer cultures of differentiated U937 cells (A) or rat alveolar macrophages (B). Media TNF-α measurements were performed 6 h after stimulation. Media NO measurements were performed 24 h after stimulation. LPS stimulation without PG was set at 100%. The molecular species of PG shown on the graph are 8:0; dioctanoyl-phosphatidylglycerol, 12:0; dilauroyl-phosphatidylglycerol (DLPG), 14:0; dimyristoyl-phosphatidylglycerol (DMPG), 16:0; dipalmitoyl-phosphatidylglycerol (DPPG), 18:0; distearoyl-phosphatidylglycerol, 16:0/18:1; palmitoyl-oleoyl-phosphatidylglycerol (POPG). […] The average TNF-α production upon LPS stimulation was 11.3±0.7 ng/ml. The average NO production upon LPS stimulation was 10.1±0.6 μM.
Rat alveolar macrophages were isolated from bronchoalveolar lavage fluid (BALF) of Sprague-Dawley rats. The lungs were lavaged with pyrogen-free saline, and alveolar macrophages were sedimented by centrifugation at 150×g×5 min. Isolated macrophages were plated at 5×10^5 cells/well in 24-well plates (Falcon) in RPMI 1640 medium containing 10% BGS. The cells were allowed to adhere for 2 h and then used for the experiments after washing with phosphate-buffered-saline (PBS) to remove the unattached cells.
Nitric oxide (NO) accumulation in the supernatant was determined as previously reported (28). Briefly, rat alveolar macrophages were stimulated with LPS (10 ng/ml) or LPS plus phospholipids for 24 h. Culture supernatants (usually […]) were combined with an equal volume of Greiss reagent, and the samples were incubated at room temperature for 10 min before the absorbance was quantified at 550 nm. With the use of a standard curve, the nmol of NO produced were determined and normalized to total cell number in each sample.

[2] = test system: differentiated U937 cells; assay: LPS-induced TNF-α secretion by differentiated U937 cells; format: cell-based, human; conditions: LPS 10 ng/ml, 6 h, liposomes; LPS without phospholipid = 100%
Description: as §1, §2
FIG. 3. […] Surfactant lipid (SL) and POPG were dried under nitrogen, and hydrated at 37° C. for 1 h. (A) SL and POPG were mixed in organic solvents prior to drying and hydrating and subsequently liposomes were produced. (B) SL and POPG were made as independent populations of liposomes that were subsequently mixed prior to macrophage treatment. 10 ng/ml of LPS and different concentrations of liposome mixtures were added to monolayer cultures of differentiated U937 cells. 6 h after stimulation, media were collected and TNF-α production was determined. LPS stimulation without phospholipid was set as 100%. […] The average TNF-α production upon LPS stimulation was 7.0±0.2 ng/ml.
U937 cells were induced to differentiate by treatment with 10 nM phorbol myristate acetate (PMA) for 48 h. The cells (1.3×10^5/well) were placed in 96-well plates and further incubated in the absence of PMA for 24 h in RPMI 1640 medium containing 10% BGS. Rat alveolar macrophages (5×10^5/well) were incubated in 24-well plates for 2 h after isolation. The indicated concentration of phospholipids was added to the cultures 30 min before adding LPS. After LPS addition cultures were incubated for 6 h at 37° C. at an atmosphere of 95% air and 5% CO2. At the end of the incubation period the medium was collected and assayed for TNF-α concentrations using an ELISA kit.
Surfactant lipids were isolated from the bronchioalveolar lavage of Sprague-Dawley rats, 28 days after intratracheal instillation of 25 mg of silica (˜125 mg/kg). Initially, the surfactant was purified by the method of Hawgood et. al. (25) using NaBr density gradient centrifugation. The purified surfactant was extracted with butanol (26) and segregated into butanol-soluble and -insoluble material.

[3] = test system: U937 macrophages; assay: TNFα in U937 macrophages stimulated with smooth LPS, with SP-A and PtdGro; format: cell-based; conditions: 100 ng/ml smooth LPS, 6 hours, lipid 20 μg/ml
Description: U937 macrophages were stimulated with 100 ng/ml smooth LPS for 6 hours. The culture medium was harvested and assayed for the presence of TNFα by ELISA. Control cultures received no additions. SP-A was added as indicated at 10 μg/ml. Saturated-(16:0/16:0)-PtdGro was added at 20 μg/ml. Unsaturated-(18:1/18:1)-PtdGro was added at 20 μg/ml.

Compound | LPS-induced NO production [1] | LPS-induced TNF-α production [2] | anti-inflammatory effects on LPS stimulated macrophages (TNFα) [3]
CCCCCCCC(=O)OCC(COP(=O)(O)OCC(O)CO)OC(=O)CCCCCCC (stereo not drawn) [8:0, dioctanoyl-phosphatidylglycerol] | failed to antagonize | failed to antagonize | –
CCCCCCCCCCCC(=O)OCC(COP(=O)(O)OCC(O)CO)OC(=O)CCCCCCCCCCC (stereo not drawn) [12:0, dilauroyl-phosphatidylglycerol] | – | modest antagonists | –
CCCCCCCCCCCCCCCCCC(=O)OCC(COP(=O)(O)OCC(O)CO)OC(=O)CCCCCCCCCCCCCCCCC (stereo not drawn) [18:0, distearoyl-phosphatidylglycerol] | failed to antagonize | failed to antagonize | –
CCCCCCCC/C=C\CCCCCCCC(=O)OC[C@H](COP(=O)(O)OCC(O)CO)OC(=O)CCCCCCC/C=C\CCCCCCCC (stereo partly drawn) [unsaturated-PtdGro, dioleoyl-phosphatidylglycerol] | – | – | potent anti-inflammatory effects
phosphatidylethanolamine [PE] | no significant effect | no significant effect | –
phosphatidylserine [PS] | less effective than PI and POPG | less effective than PI and POPG | –
sphingomyelin [SM] | no significant effect | no significant effect | –
